# According to ChEMBL document CHEMBL4622898, “Synthesis, in vitro ADME profiling and in vivo pharmacological evaluation of novel glycogen phosphorylase inhibitors” (Bioorg Med Chem Lett, 2020):
# pIC50: −log10 of the molar value. Activity calls are given as the source filed them. The calls are words filed in the database; no cut-off is given here.
# Experiments:
# Mus musculus [1] = assay: Hypoglycemic activity in adrenaline-induced diabetic mouse assessed as fasted plasma glucose level at 50 mg/kg, po measured after 90 min (reference value: 7.56 +/- 0.49); format: functional
# Mus musculus [2] = assay: Hypoglycemic activity in adrenaline-induced diabetic mouse assessed as fasted plasma glucose level at 12.5 mg/kg, po measured after 60 min (reference value: 8.41 +/- 0.48); format: functional
# Mus musculus [3] = species on record: Mus musculus; assay: Hypoglycemic activity in adrenaline-induced diabetic mouse assessed as blood glucose level measured at 1.5 hrs (reference value: 486.15 +/- 22.65 mg/dl); format: functional
# [4] = Clearance in mouse liver microsomes; format: ADME, Microsome
# [5] = Lipophilicity, log D of the compound in 1-Octanol-phosphate buffer at pH 7.4; format: physicochemical
# Mus musculus [6] = assay: Hypoglycemic activity in adrenaline-induced diabetic fasted mouse assessed as reduction in plasma glucose level at 12.5 to 50 mg/kg, po; format: functional, organism-based
# [7] = Stability of compound in simulated gastric fluid assessed as compound degradation measured up to 24 hrs; format: physicochemical; conditions: simulated gi fluid
# Mus musculus [8] = assay: Hypoglycemic activity in adrenaline-induced diabetic mouse assessed as fasted plasma glucose level at 12.5 mg/kg, po measured immediately (reference value: 4.84 +/- 0.15); format: functional
# Mus musculus [9] = assay: Hypoglycemic activity in adrenaline-induced diabetic mouse assessed as glucose AUC at 12.5 mg/kg, po measured up to 90 min (reference value: 482.63 +/- 21.01 mg/dL.min); format: functional, organism-based; parameters: time < 1.5 hr, dose 12.5 mg/kg
# [10] = Stability of compound in simulated intestinal fluid assessed as compound degradation measured up to 6 hrs; format: physicochemical; conditions: simulated gi fluid
# Mus musculus [11] = assay: Hypoglycemic activity in adrenaline-induced diabetic mouse assessed as fasted plasma glucose level at 12.5 mg/kg, po measured after 30 min (reference value: 9.58 +/- 0.44); format: functional
# Mus musculus [12] = assay: Hypoglycemic activity in adrenaline-induced diabetic mouse assessed as fasted plasma glucose level at 50 mg/kg, po measured after 60 min (reference value: 8.41 +/- 0.48); format: functional
# Mus musculus [13] = assay: Hypoglycemic activity in adrenaline-induced diabetic mouse assessed as fasted plasma glucose level at 12.5 mg/kg, po measured after 90 min (reference value: 7.56 +/- 0.49); format: functional
# [14] = Intrinsic clearance in mouse liver microsomes; format: ADME, Microsome
# [15] = Stability of compound in mouse plasma assessed as compound degradation measured up to 24 hrs; format: ADME, cell-free
# Mus musculus [16] = assay: Hypoglycemic activity in adrenaline-induced diabetic mouse assessed as fasted plasma glucose level at 25 mg/kg, po measured after 60 min (reference value: 8.41 +/- 0.48); format: functional
# [17] = Half life in mouse liver microsomes; format: ADME, Microsome
# [18] = Inhibition of rabbit muscle Glycogen phosphorylase measured phosphate release from glucose-1-phosphate; parameters: species or system Oryctolagus cuniculus
# Mus musculus [19] = assay: Hypoglycemic activity in adrenaline-induced diabetic mouse assessed as fasted plasma glucose level at 25 mg/kg, po measured after 30 min (reference value: 9.58 +/- 0.44); format: functional
# Mus musculus [20] = assay: Hypoglycemic activity in adrenaline-induced diabetic mouse assessed as glucose AUC at 50 mg/kg, po measured up to 90 min (reference value: 482.63 +/- 21.01 mg/dL.min); format: functional, organism-based; parameters: time < 1.5 hr, dose 50 mg/kg
# Hepatocyte = assay: Inhibition of glycogenolysis in rat hepatocytes assessed as GCN-stimulated glycogen breakdown after 5 mins; format: functional, cell-based
# Mus musculus [21] = assay: Hypoglycemic activity in adrenaline-induced diabetic mouse assessed as glucose AUC at 25 mg/kg, po measured up to 90 min (reference value: 482.63 +/- 21.01 mg/dL.min); format: functional, organism-based; parameters: dose 25 mg/kg, time < 1.5 hr
# HepG2 = assay: Inhibition of glycogenolysis in human HepG2 cells assessed as GCN-stimulated glycogen breakdown after 5 mins; format: functional, cell-based; conditions: HepG2, 5 min
# Mus musculus [22] = assay: Hypoglycemic activity in adrenaline-induced diabetic mouse assessed as fasted plasma glucose level at 25 mg/kg, po measured after 90 min (reference value: 7.56 +/- 0.49); format: functional
# Mus musculus [23] = assay: Hypoglycemic activity in adrenaline-induced diabetic mouse assessed as fasted plasma glucose level at 50 mg/kg, po measured immediately (reference value: 4.84 +/- 0.15); format: functional
# physchem = conditions: buffer, pH 7.4
# Description: Kinetic solubility of compound at pH 7.4 by high-throughput kinetic solubility assay
# [24] = Stability of compound in simulated intestinal fluid assessed as compound degradation measured up to 1 hr; format: physicochemical; conditions: simulated gi fluid
# Mus musculus [25] = assay: Hypoglycemic activity in adrenaline-induced diabetic mouse assessed as fasted plasma glucose level at 50 mg/kg, po measured after 30 min (reference value: 9.58 +/- 0.44); format: functional
# Mus musculus [26] = assay: Hypoglycemic activity in adrenaline-induced diabetic mouse assessed as fasted plasma glucose level at 25 mg/kg, po measured immediately (reference value: 4.84 +/- 0.15); format: functional
# [27] = Stability of compound in mouse plasma assessed as compound degradation measured up to 0.5 hrs; format: ADME, cell-free
# [28] = Stability of compound in simulated gastric fluid assessed as compound degradation measured up to 24 hrs relative to control; format: physicochemical; conditions: read-out: Drug degradation
# Mus musculus [29] = assay: Hypoglycemic activity in adrenaline-induced diabetic mouse assessed as fasted plasma glucose level at 200 mg/kg, po measured immediately (reference value: 4.84 +/- 0.15); format: functional
# Mus musculus [30] = assay: Hypoglycemic activity in adrenaline-induced diabetic mouse assessed as fasted plasma glucose level at 200 mg/kg, po measured after 90 min (reference value: 7.56 +/- 0.49); format: functional
# Mus musculus [31] = assay: Hypoglycemic activity in adrenaline-induced diabetic mouse assessed as glucose AUC at 200 mg/kg, po measured up to 90 min (reference value: 482.63 +/- 21.01 mg/dL.min); format: functional, organism-based; parameters: dose 200 mg/kg, time < 1.5 hr
# Mus musculus [32] = assay: Hypoglycemic activity in adrenaline-induced diabetic mouse assessed as fasted plasma glucose level at 200 mg/kg, po measured after 60 min (reference value: 8.41 +/- 0.48); format: functional
# Mus musculus [33] = assay: Hypoglycemic activity in adrenaline-induced diabetic mouse assessed as fasted plasma glucose level at 200 mg/kg, po measured after 30 min (reference value: 9.58 +/- 0.44); format: functional
# [34] = Aqueous solubility of compound; format: physicochemical; conditions: buffer
# [35] = Inhibition of recombinant human liver glycogen phosphorylase a expressed in baculovirus-infected Sf9 cells using glucose-1-phosphate as substrate in presence of 7.5 mM glucose
CLint scaled [4] [mL/min/kg],logD [5],CLint [14] [µL/min/mg],half-life [17] [min],pIC50 [18],pIC50 (HepG2),solubility kinetic (physchem) [µM],Stability [24],SMILES,pIC50 (Hepatocyte),also measured
< 38,0.72,< 9.6,> 145,6.54,5.49,188,Stable,O=C(O)CNC(=O)[C@H](Cc1ccccc1)NC(=O)c1cc2cc(Cl)ccc2[nH]1,5.15,plasma glucose (Mus musculus [1]): 6.05 mM; plasma glucose (Mus musculus [2]): 7.4 mM; Activity (Mus musculus [3]): 446.25 mg/dL; Activity (Mus musculus [6]): Active; Stability [7]: Stable; OD (Mus musculus [8]): 4.89; AUC (Mus musculus [9]): 449 mg/dL×min; Stability [10]: Unstable; plasma glucose (Mus musculus [11]): 8.92 mM; plasma glucose (Mus musculus [12]): 6.83 mM; plasma glucose (Mus musculus [13]): 7.47 mM; Stability [15]: Stable; plasma glucose (Mus musculus [16]): 7.62 mM; plasma glucose (Mus musculus [19]): 9.52 mM; AUC (Mus musculus [20]): 416 mg/dL×min; AUC (Mus musculus [21]): 451 mg/dL×min; plasma glucose (Mus musculus [22]): 6.7 mM; OD (Mus musculus [23]): 4.86; plasma glucose (Mus musculus [25]): 9.03 mM; OD (Mus musculus [26]): 4.85
356,3.95,90,15.4,7.31,6.18,1.89,Unstable,COC(=O)CNC(=O)[C@H](Cc1ccccc1)NC(=O)c1cc2cc(Cl)ccc2[nH]1,6.14,Stability [27]: Unstable; degraded at 24 h [28]: 50%
< 38,3.32,< 9.6,> 145,6.26,5.19,36.8,Unstable,NC(=O)[C@@H](Cc1ccccc1)NC(=O)CNC(=O)c1cc2cc(Cl)ccc2[nH]1,5.12,Stability [7]: Stable; Stability [15]: Stable
–,–,–,–,7.04,5.48,–,–,CN(C)C(=O)[C@H](O)[C@H](Cc1ccccc1)NC(=O)c1cc2cc(Cl)ccc2[nH]1,5.50,solubility [34]: < 1000 µg/mL; pIC50 [35]: 6.96

# The next lines start with the compound.
SMILES,CLint scaled [4] [mL/min/kg],logD [5],CLint [14] [µL/min/mg],half-life [17] [min],pIC50 [18],pIC50 (HepG2),solubility kinetic (physchem) [µM],Stability [24],pIC50 (Hepatocyte),also measured
CN(C)CCCN1c2ccccc2Sc2ccc(Cl)cc21 [CHLORPROMAZINE],–,3.23,–,–,–,–,–,–,–,–
O=C(O)Cc1ccccc1Nc1c(Cl)cccc1Cl [DICLOFENAC],203,–,51.2,27.1,–,–,–,–,–,–
O=C(N[C@@H](Cc1ccc(O)cc1)c1nc2ccccc2[nH]1)c1cc2cc(Cl)ccc2[nH]1,–,–,–,–,6.24,5.08,–,–,5.02,–
CN(C)C(=N)NC(=N)N [METFORMIN],–,–,–,–,–,–,–,–,–,OD (Mus musculus [29]): 4.76; OD (Mus musculus [30]): 5; AUC (Mus musculus [31]): 374 mg/dL×min; plasma glucose (Mus musculus [32]): 5.79 mM; plasma glucose (Mus musculus [33]): 8.85 mM
